According to the NIST ThermoML archive (doi:10.1016/j.fluid.2006.12.011):
± gives the expanded uncertainty stated by the source.

Assay: xn = mol fraction of the nth substance listed
Conditions: Liquid, Vibrating tube method

C1CC[C@H]2CCCC[C@H]2C1 [cis-decahydronaphthalene] + C1CC[C@H]2CCCC[C@@H]2C1
mass density [kg/m3]
Conditions | x1 = 0.2 | x1 = 0.35 | x1 = 0.5 | x1 = 0.65 | x1 = 0.8 | x1 = 1
303.15 K, 100 kPa | 867.4 ± 1 | 871.5 ± 1.1 | 875.5 ± 1.1 | 879.2 ± 1.1 | 883.4 ± 1.1 | 888.5 ± 1.2
303.15 K, 5000 kPa | 870.6 ± 1 | 874.6 ± 1.1 | 878.5 ± 1.1 | 882.3 ± 1.1 | 886.3 ± 1.1 | 891.4 ± 1.2
303.15 K, 10000 kPa | 873.8 ± 1.1 | 877.7 ± 1.1 | 881.6 ± 1.1 | 885.3 ± 1.1 | 889.4 ± 1.2 | 894.4 ± 1.2
303.15 K, 15000 kPa | 876.8 ± 1.1 | 880.7 ± 1.1 | 884.5 ± 1.1 | 888.3 ± 1.1 | 892.3 ± 1.2 | 897.3 ± 1.2
303.15 K, 20000 kPa | 879.7 ± 1.1 | 883.6 ± 1.1 | 887.5 ± 1.1 | 891.2 ± 1.1 | 895.2 ± 1.2 | 899.9 ± 1.2
303.15 K, 25000 kPa | 882.6 ± 1.1 | 886.4 ± 1.1 | 890.3 ± 1.1 | 894 ± 1.1 | 897.9 ± 1.2 | 902.8 ± 1.3
303.15 K, 30000 kPa | 885.3 ± 1.1 | 889.2 ± 1.1 | 893 ± 1.1 | 896.7 ± 1.2 | 900.6 ± 1.2 | 905.5 ± 1.3
303.15 K, 35000 kPa | 888 ± 1.1 | 891.8 ± 1.1 | 895.6 ± 1.1 | 899.3 ± 1.2 | 903.2 ± 1.2 | 908 ± 1.3
303.15 K, 40000 kPa | 890.7 ± 1.1 | 894.5 ± 1.1 | 898.2 ± 1.1 | 901.9 ± 1.2 | 905.7 ± 1.2 | 910.6 ± 1.3
303.15 K, 45000 kPa | 893.2 ± 1.1 | 896.9 ± 1.1 | 900.7 ± 1.1 | 904.4 ± 1.2 | 908.1 ± 1.2 | 913 ± 1.3
303.15 K, 50000 kPa | 895.6 ± 1.1 | 899.4 ± 1.1 | 903 ± 1.2 | 906.7 ± 1.2 | 910.5 ± 1.2 | 915.3 ± 1.3
303.15 K, 55000 kPa | 898 ± 1.1 | 901.7 ± 1.1 | 905.4 ± 1.2 | 909 ± 1.2 | 912.8 ± 1.2 | 917.6 ± 1.3
303.15 K, 60000 kPa | 900.3 ± 1.1 | 904 ± 1.1 | 907.7 ± 1.2 | 911.3 ± 1.2 | 915.1 ± 1.2 | 919.9 ± 1.3
303.15 K, 65000 kPa | 902.6 ± 1.1 | 906.3 ± 1.1 | 909.9 ± 1.2 | 913.6 ± 1.2 | 917.3 ± 1.3 | 922.1 ± 1.3
323.15 K, 100 kPa | 852.1 ± 1 | 856.3 ± 1.1 | 860.2 ± 1.1 | 864.2 ± 1.1 | 868.1 ± 1.1 | 873.2 ± 1.2
323.15 K, 5000 kPa | 855.9 ± 1 | 859.9 ± 1.1 | 863.7 ± 1.1 | 867.6 ± 1.1 | 871.6 ± 1.1 | 876.5 ± 1.2
323.15 K, 10000 kPa | 859.4 ± 1.1 | 863.3 ± 1.1 | 867.1 ± 1.1 | 870.9 ± 1.1 | 874.9 ± 1.2 | 879.8 ± 1.2
323.15 K, 15000 kPa | 862.7 ± 1.1 | 866.6 ± 1.1 | 870.4 ± 1.1 | 874.2 ± 1.1 | 878.1 ± 1.2 | 883 ± 1.2
323.15 K, 20000 kPa | 865.9 ± 1.1 | 869.8 ± 1.1 | 873.5 ± 1.1 | 877.3 ± 1.1 | 881.2 ± 1.2 | 886 ± 1.2
323.15 K, 25000 kPa | 869 ± 1.1 | 872.9 ± 1.1 | 876.5 ± 1.1 | 880.3 ± 1.1 | 884.2 ± 1.2 | 889 ± 1.3
323.15 K, 30000 kPa | 872 ± 1.1 | 875.8 ± 1.1 | 879.4 ± 1.1 | 883.2 ± 1.2 | 887 ± 1.2 | 891.8 ± 1.3
323.15 K, 35000 kPa | 874.9 ± 1.1 | 878.7 ± 1.1 | 882.3 ± 1.1 | 886.1 ± 1.2 | 889.8 ± 1.2 | 894.6 ± 1.3
323.15 K, 40000 kPa | 877.6 ± 1.1 | 881.5 ± 1.1 | 885.1 ± 1.1 | 888.7 ± 1.2 | 892.6 ± 1.2 | 897.3 ± 1.3
323.15 K, 45000 kPa | 880.4 ± 1.1 | 884.2 ± 1.1 | 887.7 ± 1.2 | 891.4 ± 1.2 | 895.2 ± 1.2 | 899.9 ± 1.3
323.15 K, 50000 kPa | 882.9 ± 1.1 | 886.7 ± 1.1 | 890.3 ± 1.2 | 894 ± 1.2 | 897.7 ± 1.2 | 902.4 ± 1.3
323.15 K, 55000 kPa | 885.5 ± 1.1 | 889.2 ± 1.1 | 892.8 ± 1.2 | 896.4 ± 1.2 | 900.2 ± 1.2 | 904.8 ± 1.3
323.15 K, 60000 kPa | 888 ± 1.1 | 891.8 ± 1.2 | 895.3 ± 1.2 | 899 ± 1.2 | 902.7 ± 1.3 | 907.3 ± 1.3
323.15 K, 65000 kPa | 890.5 ± 1.1 | 894.2 ± 1.2 | 897.7 ± 1.2 | 901.3 ± 1.2 | 905 ± 1.3 | 909.6 ± 1.3
343.15 K, 100 kPa | 837.2 ± 1 | 841.1 ± 1.1 | 844.9 ± 1.1 | 849 ± 1.1 | 853.2 ± 1.1 | 857.8 ± 1.2
343.15 K, 5000 kPa | 841.2 ± 1 | 845 ± 1.1 | 848.8 ± 1.1 | 852.7 ± 1.1 | 857 ± 1.1 | 861.5 ± 1.2
343.15 K, 10000 kPa | 845 ± 1.1 | 848.9 ± 1.1 | 852.5 ± 1.1 | 856.5 ± 1.1 | 860.6 ± 1.2 | 865.1 ± 1.2
343.15 K, 15000 kPa | 848.8 ± 1.1 | 852.5 ± 1.1 | 856.2 ± 1.1 | 860 ± 1.1 | 864.2 ± 1.2 | 868.6 ± 1.2
343.15 K, 20000 kPa | 852.2 ± 1.1 | 855.9 ± 1.1 | 859.6 ± 1.1 | 863.4 ± 1.1 | 867.5 ± 1.2 | 871.9 ± 1.2
343.15 K, 25000 kPa | 855.6 ± 1.1 | 859.3 ± 1.1 | 862.9 ± 1.1 | 866.7 ± 1.2 | 870.7 ± 1.2 | 875.1 ± 1.3
343.15 K, 30000 kPa | 858.8 ± 1.1 | 862.6 ± 1.1 | 866.2 ± 1.1 | 870 ± 1.2 | 873.9 ± 1.2 | 878.3 ± 1.3
343.15 K, 35000 kPa | 862 ± 1.1 | 865.6 ± 1.1 | 869.2 ± 1.1 | 873 ± 1.2 | 876.9 ± 1.2 | 881.2 ± 1.3
343.15 K, 40000 kPa | 865 ± 1.1 | 868.6 ± 1.1 | 872.2 ± 1.2 | 875.9 ± 1.2 | 879.8 ± 1.2 | 884.1 ± 1.3
343.15 K, 45000 kPa | 867.9 ± 1.1 | 871.6 ± 1.1 | 875.1 ± 1.2 | 878.8 ± 1.2 | 882.6 ± 1.2 | 887 ± 1.3
343.15 K, 50000 kPa | 870.8 ± 1.1 | 874.4 ± 1.1 | 878 ± 1.2 | 881.6 ± 1.2 | 885.4 ± 1.2 | 889.7 ± 1.3
343.15 K, 55000 kPa | 873.6 ± 1.1 | 877.1 ± 1.2 | 880.6 ± 1.2 | 884.3 ± 1.2 | 888 ± 1.3 | 892.3 ± 1.3
343.15 K, 60000 kPa | 876.2 ± 1.1 | 879.7 ± 1.2 | 883.1 ± 1.2 | 886.9 ± 1.2 | 890.6 ± 1.3 | 894.9 ± 1.3
343.15 K, 65000 kPa | 878.9 ± 1.2 | 882.4 ± 1.2 | 885.8 ± 1.2 | 889.5 ± 1.2 | 893.2 ± 1.3 | 897.4 ± 1.3
